Experimental data published in patent US20030027791A1, “Composition and method for reducing adverse interactions between phenothiazine derivatives and plasma using cyclodextrins” (Wyeth, priority 2001, published 2003).

How the values were obtained:
[1] = Precipitate formation when promethazine hydrochloride preparation is mixed with plasma in vitro; assay type: physicochemical; conditions: mixing ratio not stated
From the text: Without being bound by any particular theory, it is believed that this precipitate formation could be related to the venous thrombosis found at the injection site, as well as the cause of other local adverse reactions involving promethazine hydrochloride injection. […] With a composition according to one or more of the embodiments set forth herein, it is expected that a promethazine hydrochloride solution given by the routes of i.v. and i.m. (intramuscular) injection would have fewer incidences of irritation and other adverse reactions at the site of injection.

[2] = intravenous use; cited from earlier work
[3] = in vivo; cited from earlier work

**Q.** With `CC(CN1c2ccccc2Sc2ccccc21)N(C)C.Cl` (racemic) [promethazine hydrochloride, 10H-Phenothiazine-10-ethanamine, N,N, α-trimethyl-, monohydrochloride, (±)-] as the compound, how does the “Precipitate formation when solution is mixed with plasma in vitro” value [1] read?
**A.** precipitates form immediately

**Q.** And the “Adverse reactions at the injection site” value [2]?
**A.** some incidents of venous thrombosis at the injection site have been encountered

**Q.** What about the “Plasma creatine kinase levels” value [3] of the same compound?
**A.** raise plasma creatine kinase levels
